What was measured:
[1] = test system: dysplastic tissue in Barrett's esophagus; conditions: cited from earlier work
[2] = test system: normal and Barrett's tissue of the esophagus; experiment: Spectrofluorimetry (LIFS) of PpIX fluorescence intensity in the esophagus of patients suffering from Barrett's esophagus; type: in vivo, human; conditions: for porphyrin (PpIX) fluorescence in normal tissue compared to Barrett's tissue: ALA 20 mg/kg orally 4-5 hours before endoscopy (5 subjects), HAL 8 mM solution by local instillation 2 hours before endoscopy (3 subjects)
Experimental: Spectrofluorimetry (LIFS) measurements (fluorescence intensity of PpIX in the esophagus) were carried out on 8 patients suffering from Barrett's esophagus. The measurements were carried out after oral administration of 5-ALA (ALA) or local instillation of 5-ALA hexyl ester (HAL) and the fluorescence intensity of normal and Barrett's tissue was compared.
LIFS was carried out using the Karl Storz D-light system. Abnormal cells could be clearly delineated against normal tissue due to the porphyrin fluorescence resulting from an accumulation of the ALA or HAL in the abnormal tissue. For this purpose, blue light of a specific spectral composition was introduced into the body via an endoscopic light guide system. • Patient group 1: 5 subjects each received 20 mg/kg body weight ALA orally, 4-5 hours before endoscopy. • Patient group 2: 3 subjects each received a 8 mM solution of HAL in an aqueous buffer by local instillation (100 mg in 50 mL, i.e. 0.2%), 2 hours before endoscopy.

Structure (SMILES)	distinction of high-grade dysplastic from non-dysplastic epithelial tissue ([1]; Brand et al. 2002)	detection of high-grade intraepithelial neoplasia and adenocarcinoma ([1]; Stepinac et al. 2003)	detection of low-grade neoplastic tissue ([1]; Stepinac et al. 2003)	specificity for detection of dysplastic tissue ([1]; systemic application of 5-ALA at 20 mg/kg and 30 mg/kg, high rate of false positive fluorescence)	porphyrin (PpIX) fluorescence in normal tissue compared to Barrett's tissue ([2]; FIG. 1)	intensity of fluorescence in the normal epithelium, HAL versus ALA ([2]; FIG. 1, normal epithelium, HAL 8 mM local instillation vs ALA 20 mg/kg orally)	fluorescence intensity of PpIX in the Barrett and normal mucosa ([2]; FIG. 2, one of the patients receiving HAL)	intensity of fluorescence in the normal and Barrett epithelium, HAL compared to ALA ([2]; normal and Barrett epithelium, background fluorescence)
NCC(=O)CCC(=O)O [ALA, 5-aminolevulinic acid]	can distinguish	effective	not accurate	poor	significantly higher in normal tissue compared to Barrett's tissue			
CCCCCCOC(=O)CCC(=O)CN [HAL, 5-ALA hexyl ester]					significantly higher in normal tissue compared to Barrett's tissue	lower	stronger intensity for the normal mucosa	lower intensity of fluorescence
